Legend:
Experiment in all cases: relative viability (nuclei count vs DMSO), 5 days (fraction); higher = more cells survive
[1] = compound: C1=CC2=NC=CN=C2C=C1/C=C/3\C(=O)NC(=O)S3 + CC1(C)CCC(c2ccc(Cl)cc2)=C(CN2CCN(c3ccc(C(=O)NS(=O)(=O)c4ccc(N[C@H](CCN5CCOCC5)CSc5ccccc5)c(S(=O)(=O)C(F)(F)F)c4)cc3)CC2)C1 [Navitoclax] (partner 0.5 µM)
In short: (§1)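 Lung cancer cell lines were pin-tool dosed in 1536-well plates on the day after seeding, with either a lone drug or a fixed anchor-drug dose plus five library-drug doses (not always all listed) in √10 steps. Nuclei were counted on 4× images after 5 days. Relative viability is the ratio of treated-well to vehicle-well nuclei counts, with each value a median of duplicate plates.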

[2] = compound: C1=CC2=NC=CN=C2C=C1/C=C/3\C(=O)NC(=O)S3 + COc1cc2c(Oc3ccc(NC(=O)C4(C(=O)Nc5ccc(F)cc5)CC4)cc3F)ccnc2cc1OCCCN1CCOCC1 [Foretinib] (partner 0.25 µM)
In short: as §1

BGJ398 = compound: CCN1CCN(c2ccc(Nc3cc(N(C)C(=O)Nc4c(Cl)c(OC)cc(OC)c4Cl)ncn3)cc2)CC1 [BGJ398]
In short: (§2)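 Viability is treated-well nuclei as a fraction of vehicle-well nuclei, reported as the median across plates. Before counting, lung cancer cell lines were kept overnight at 37 °C in 1536-well plates, pinned with five √10-spaced library-drug doses on vehicle-anchored plates, and left 5 days without medium change, then fixed, permeabilised and Hoechst-stained in one step, imaged at 4× and counted by MetaXpress. A plate passed only if control CV was below 25% and at least one doubling occurred.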

[3] = compound: C1=CC2=NC=CN=C2C=C1/C=C/3\C(=O)NC(=O)S3
In short: as §2

Cell Line	relative viability ([1]; first compound 0.02 µM)	relative viability ([1]; first compound 0.06325 µM)	relative viability ([1]; first compound 0.6325 µM)	relative viability ([1]; first compound 2 µM)	relative viability ([2]; first compound 0.02 µM)	relative viability ([2]; first compound 0.06325 µM)	relative viability ([2]; first compound 0.2 µM)	relative viability ([2]; first compound 0.6325 µM)	relative viability ([2]; first compound 2 µM)	relative viability (BGJ398; 0.01 µM)	relative viability (BGJ398; 0.03162 µM)	relative viability (BGJ398; 0.1 µM)	relative viability (BGJ398; 0.3162 µM)	relative viability (BGJ398; 1 µM)	relative viability ([3]; 0.02 µM)	relative viability ([3]; 0.06325 µM)	relative viability ([3]; 0.2 µM)	relative viability ([3]; 0.6325 µM)	relative viability ([3]; 2 µM)	relative viability ([1]; first compound 0.2 µM)
NCI-H441	0.523	0.562	0.771	0.553	0.925	1.09	1.06	0.925	0.668	0.807	0.977	1.16	1.05	1.01	0.863	0.875	0.885	1.2	0.736	–
LOU-NH91	0.686	0.659	0.641	0.657	0.917	0.965	0.964	0.923	0.855	0.935	0.883	0.971	0.771	0.931	0.997	0.988	1.01	0.978	0.805	0.685
NCI-H3122	1.06	0.997	1.01	1.08	0.963	0.985	0.917	0.867	0.96	0.934	1.01	1.04	0.977	1.01	1	1.04	0.975	0.949	0.984	0.973
NCI-H460	1.03	1.24	1.02	1.11	0.936	0.833	1.03	0.953	1	1.02	1.04	1.11	0.984	0.988	0.933	0.964	0.999	0.939	0.942	1.19
NCI-H1793	0.509	0.439	0.36	0.83	0.633	0.601	0.721	0.634	0.642	0.877	0.644	0.927	0.698	0.808	0.81	0.729	1.02	0.739	0.736	0.496
NCI-H1734	0.799	–	0.78	0.877	0.891	0.674	0.808	0.844	0.681	0.895	1.02	1.06	0.93	1.05	0.94	–	1.07	0.916	0.635	0.897
LXF-289	0.92	0.918	0.917	0.932	0.925	0.92	0.953	0.982	0.908	0.949	0.948	0.944	0.875	0.942	0.996	0.95	0.956	0.97	1.01	0.898
H3255	0.533	0.421	0.449	0.498	0.786	0.968	0.881	0.899	0.965	0.945	–	1	0.843	0.999	0.984	1.02	1.01	0.934	0.946	0.581
201T	1.18	1.26	1.21	1.18	0.866	0.977	1.12	1.06	0.758	1.18	0.93	0.96	0.95	0.845	0.823	1.05	1.03	0.954	0.818	1.19
NCI-H2126	0.739	0.909	0.842	0.727	0.917	0.987	1.2	1.11	0.745	1.02	0.999	1.04	0.989	0.948	0.885	1.07	0.956	0.979	0.621	0.914
HOP-62	0.974	1.15	1.06	0.931	1.06	1.22	1.11	1.01	1.07	0.983	1.07	1.07	0.982	1.02	0.929	0.945	1.06	1	0.943	1.13
CAL-12T	1.3	1.13	1.24	1.49	1.07	1.05	1.09	1.01	1.15	0.947	1.02	0.935	0.929	0.942	0.962	0.953	1.08	0.971	0.951	1.09
NCI-H520	1.15	1.49	1.04	1.01	0.71	0.719	0.846	0.674	0.648	0.954	0.954	0.758	0.312	0.4	1.03	1.14	1.06	0.855	0.927	1.08
NCI-H1755	0.881	0.947	0.975	0.936	0.807	0.942	0.923	0.897	0.864	0.933	1.06	1.05	0.963	1.01	0.887	0.949	0.986	0.925	0.93	1.03
NCI-H2023	1.01	1.11	1.02	0.978	0.714	0.832	0.765	0.781	0.51	0.872	0.998	0.997	0.977	1.01	0.94	0.966	1.02	0.886	0.773	1.02
NCI-H2009	1.2	1.2	1.21	1.23	1.21	1.22	1.3	1.28	1.12	0.924	1.07	0.994	0.974	1.06	0.996	1.03	1.04	1.02	0.923	1.15
